Measured values published in US5196568A, “Compounds useful in enzymatic resolution systems and their preparation” (priority 1988, dated 1993).
In brackets after ≈: the same amount, converted by molar mass. Where a name gives a salt, the structure may show the parent alone.

Columns and labels:
[1] = Solubility of esters, absorbance of saturated solutions at 262 nm; type: physicochemical; settings: for water solubility: in water; for Solubility: saturated solution, pH 7 (50 mM phosphate buffer), room temperature
[2] = test system: Candida lipase, Sigma L-1754 (Enzyme H); assay: Asymmetric hydrolysis in a multiphasic bioreactor with Enzyme H
Description: The enzyme solution was recirculated from the shell side to the lumen side and back to the solution reservoir in an ultra-filtration mode. […] The procedure was completed in one hour.
The recirculation rate was 400 ml/min and the average pressure on the shell compartment was kept at 6.5 psi by adjusting a throttling valve at the shell side exit. On the lumen side 1 liter of 0.05M K2 PO4 was recirculated at a rate of 400 ml/min. The pH of the aqueous reservoir was kept at 7.0 by addition of 1M NaOH. The reactor was run continuously for 6.8 days.
The reaction progress and rate were monitored by following the caustic consumption.

[3] = test system: Protease XXIII from Aspergillus oryzae (Enzyme A); assay: Homogeneous aqueous enzymatic resolution (ester hydrolysis) with Enzyme A; type: biochemical; settings: 100 mg enzyme A
Description: No further purification was performed.

[4] = test system: Candida lipase, Genzyme (Enzyme G); assay: Asymmetric hydrolysis in a multiphasic bioreactor with Enzyme G
Description: 3.0 grams of the lipase were dissolved in 500 mls of distilled water; this solution was recirculated in an ultrafiltration mode from the shell into the lumen and back to the reservoir for 30 minutes. The ultrafiltrate was then collected until the reservoir was empty, and methyl isobutyl ketone (MIBK) was then pumped into the shell and recirculated at 400-450 ml/min with a 5-7 psig shell pressure to remove any remaining enzyme solution from the shell.
A reactor was prepared as described in Example 6.2.2.5 (naproxen) using essentially the same mode of loading the enzyme, 3.0 grams of Candida lipase (Enzyme G, from Genzyme Corporation) were ultrafiltered from the shell into the lumen. […] The module was then drained.
No organic solvent was required as the substrate is already a water-immiscible liquid. Phosphate buffer was immediately pumped into the lumen and recirculated at 400-450 ml/min.
The reaction was monitored by following acid production based on hydroxide titration data. […] The aqueous buffer was replaced after 76 minutes and acidified to pH 2.0 with concentrated HCl in the presence of about 200 ml of chloroform.

[5] = test system: protease Prozyme 6 (Enzyme F); assay: Homogeneous aqueous enzymatic resolution with Enzyme F; type: biochemical, Aspergillus oryzae; settings: for % e.e.: naproxen acid product (R), 100 mg Prozyme 6, pH 7.0, 25 C
Description: The enzymatic reaction mixtures were capped and briefly shaken until all the substrate had dissolved, and the enzyme had completely dissolved or dispersed. […] Evaporation of the ether left a white solid. The result is summarized below in Table 11 Rotations were measured at c=1 in CHCl3.
The enzymatic reaction mixtures were capped and briefly shaken until all the substrate had dissolved, and the enzyme had completely dissolved or dispersed. […] Evaporation of the ether left a white solid. Rotations were measured at c=1 in CHCl3.
The reaction was started by adding 100 mg of the protease (F) from the fungus Aspergillus oryzae (from Amano Enzyme Corporation, Prozyme 6, 60,000 units per mg of solid).
After 20 hours at room temperature, the solution was acidified to pH 2 and extracted with 3 volumes of diethyl ether. The aqueous phase was saved for subsequent workup. The ether phase was washed with two volumes of distilled water and then one volume of saturated sodium chloride, and then it was dried over MgSO4 and subsequently evaporated to dryness. The resolved ibuprofen product recovered was 930 mg of white powder, indicating 45% conversion of racemic ester to acid. The optical rotation was -0.580° (measured at c=1 in ethanol), indicating the R isomer of ibuprofen.
35 mg of protease Enzyme F, as the commercial preparation Prozyme 6, were added to the aqueous solution. The reaction flask was capped, and briefly shaken until all the enzyme had dissolved or dispersed. […] The resulting mixture was diluted with one volume of water and was extracted with diethyl ether (2 times 200 ml). The ether layers were combined and backwashed with water (2 times 200 ml), saturated NaCl solution (200 ml), and then dried over MgSO4.
In this control run, a 0.5M ester solution of (1) was prepared in 325 ml of 0.1M sodium phosphate buffer (pH 7.0). The reaction was started by adding 3 gm of the above enzyme (F). The pH was controlled at 7.0 with 8.22M sodium hydroxide. After 6.49 hours at 30° C., 6.63 ml of hydroxide were added, indicating 37.7% conversion. The reaction was allowed to continue overnight and, after 23.1 hours, a total of 7.2 ml of sodium hydroxide were added, indicating 40.9% conversion.

[6] = target: T1, Protease VIII "Subtilopeptidase A" (Enzyme B) (Bacillus licheniformis, UniProt P00780); assay: Rates of hydrolysis of the two enantiomers, pH stat, Enzyme B; type: biochemical; settings: for Rate (hydrolysis): 50 mM ester, 50 mM Na3PO4 buffer pH 7.6
T1 sequence (P00780 106-379): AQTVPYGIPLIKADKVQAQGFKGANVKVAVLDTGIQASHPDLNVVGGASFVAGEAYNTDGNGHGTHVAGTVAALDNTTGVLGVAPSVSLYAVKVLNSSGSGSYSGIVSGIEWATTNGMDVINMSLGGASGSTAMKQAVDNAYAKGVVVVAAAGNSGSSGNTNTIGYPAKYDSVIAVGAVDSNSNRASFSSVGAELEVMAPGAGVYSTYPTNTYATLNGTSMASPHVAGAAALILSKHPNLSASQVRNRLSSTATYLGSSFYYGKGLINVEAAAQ
Description: (§1) 15 ml of a solution containing one enantiomer of the ester at a concentration of 50 mM, and Na3 PO4 buffer at 50 mM and pH 7.6 was observed using a pH stat device. 0.1 ml of a 50 mg/ml solution of enzyme B, made up from the commercially available preparation in 50 mM Na3 PO4 buffer at pH 7.6, were added. Rates of hydrolysis of both enantiomers of the ester compound were determined for the enzyme. The ratio of the rates of hydrolysis for the two enantiomers for the two enantiomers with respect to the enzyme indicate the stereospecificity of that enzyme's hydrolytic action on the racemic mixture of the ester. No evidence for the hydrolysis of the acetylthio ester portion of the substrate molecule was found.

[7] = test system: Protease XIV from Streptomyces griseus (Enzyme I); assay: Rates of hydrolysis of the two enantiomers, pH stat, Enzyme I; type: biochemical; settings: for Rate (hydrolysis): 50 mM ester, pH 7.6
Description: as §1, with “solution of protease enzyme I,” for “solution of enzyme B,”, “protease enzyme I, made up” for “of enzyme B, made up”, “for the protease enzyme. The” for “for the enzyme. The”

[8] = test system: Protease XXIII from Aspergillus oryzae (Enzyme A); assay: Rates of hydrolysis of the two enantiomers, pH stat, Enzyme A; type: biochemical; settings: for Rate (hydrolysis): 50 mM ester, pH 7.6
Description: 15 ml of a solution containing one enantiomer of the ester at a concentration of 50 mM, and Na3 PO4 buffer at 50 mM and pH 7.6 was observed using a pH stat device. 0.1 ml of a 50 mg/ml solution of enzyme A, made up from
as §1, with “the” for “15 ml of a solution containing one enantiomer of the ester at a concentration of 50 mM, and Na3 PO4 buffer at 50 mM and pH 7.6 was observed using a pH stat device. 0.1 ml of a 50 mg/ml solution of enzyme B, made up from the”

[9] = target: T2, Protease XXIV bacterial protease (Enzyme J) (Bacillus licheniformis, UniProt P00780); assay: Rates of hydrolysis of the two enantiomers, pH stat, Enzyme J; type: biochemical; settings: for Rate (hydrolysis): 50 mM ester, pH 7.6
T2 sequence (P00780 106-379): T1 sequence (P00780 106-379)
Description: as §1, with “Enzyme J,” for “enzyme B,”

[10] = target: T3, Protease XXVII "Nagarse" (Enzyme D) (Bacillus amyloliquefaciens, UniProt P00782); assay: Rates of hydrolysis of the two enantiomers, pH stat, Enzyme D; type: biochemical; settings: for Rate (hydrolysis): 50 mM ester, pH 7.6
T3 construct: purchased Protease XXVII
T3 sequence (P00782 108-382): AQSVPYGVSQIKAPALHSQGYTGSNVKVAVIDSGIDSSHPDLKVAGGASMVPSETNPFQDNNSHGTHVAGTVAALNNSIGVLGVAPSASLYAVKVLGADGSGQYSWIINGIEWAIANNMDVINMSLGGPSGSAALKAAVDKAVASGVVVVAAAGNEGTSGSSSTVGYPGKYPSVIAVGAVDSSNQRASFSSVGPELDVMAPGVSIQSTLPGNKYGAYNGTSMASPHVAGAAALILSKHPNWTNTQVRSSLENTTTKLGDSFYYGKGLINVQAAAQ
Description: as §1, with “D,” for “B,”, “thioacetyl” for “acetylthio”

CCCCCCCCOC(=O)C(C)Cl (centres unmarked) [Compound 20, Octyl Ester of 2-Chloropropanoic Acid]
water solubility [1]: approximately 1.2 mM
Solubility [1]: 1.2 mM (≈ 265 µg/mL)
initial ester hydrolyzed ([2]; at termination, 6.8 days): 41%
rate of ester hydrolysis ([2]; at the beginning of the experiment, pH 7.0, 30 grams lipase): 186 µmol/min
rate of ester hydrolysis ([2]; at the end (6.8 days)): 25 µmol/min

CC(C)Cc1ccc(C(C)C(=O)OCC[N+](C)(C)C)cc1 (centres unmarked) [Compound 10, Iodide Salt of 2-(N,N,N-Trimethylammonium)ethyl Ester of 2-(4-Isobutylphenyl)propanoic Acid]
Solubility [1]: 2180 mM
% e.e. ([3]; acid product (R), pH 7.0, 20 hours, 20-22 C): > 99%

COCCOC(=O)C(C)c1ccc(CC(C)C)cc1 (centres unmarked) [Methoxyethyl ester of ibuprofen, reference compound]
Solubility [1]: 0.18 mM (≈ 47.6 µg/mL)

CC(C)Cc1ccc(C(C)C(=O)OCC(F)(F)F)cc1 (centres unmarked) [Compound 19, 2,2,2-Trifluoroethyl Ester of 2-(4-Isobutylphenyl)propanoic Acid]
water solubility [1]: roughly 0.4 mM
Solubility [1]: 0.4 mM (≈ 115 µg/mL)
average hydrolytic rate ([4]; first 60 minutes, neat liquid ester, pH 7.7, 3.0 grams lipase): 160 µmol/min
conversion to acid ([4]; over the next 76 hours): about 9.8%
average hydrolysis rate ([4]; over the next 76 hours, by titrimetry): 21 µmol/min

CC(Oc1ccc(Cl)cc1)C(=O)OCS(=O)(=O)O (centres unmarked) [Compound 17, Sodium Salt of the Sulfomethyl Ester of 2-(4-Chlorophenoxy)propanoic Acid]
reaction completion ([5]; 35 mg Prozyme 6, 10 mmol ester in 100 ml 0.2M sodium phosphate pH 7.0, 30 C, 1 hour): 22.5%

CC(C)Cc1ccc(C(C)C(=O)OCCN(C)C)cc1 (centres unmarked) [2-(N,N-dimethylamino)ethyl ester of ibuprofen, reference compound]
Solubility [1]: 10 mM (≈ 2770 µg/mL)

COC(=O)C(C)c1ccc2cc(OC)ccc2c1 (racemic) [Compound 18, Methyl Ester of 2-(6-Methoxy-2-naphthyl)propanoic Acid]
average rate (hydrolysis) ([4]; first 45 minutes, 0.75M ester in MIBK, pH 8.50, 3.0 grams lipase): 35 µmol/h

COc1ccc2cc(C(C)C(=O)OCCC[N+](C)(C)C)ccc2c1 (centres unmarked) [Compound 12, Methyl Sulfate Salt of 3-(N,N,N-Trimethylammonium)propyl Ester of 2-(6-Methoxy-2-naphthyl)propanoic Acid]
Solubility [1]: 1610 mM
% CONVERSION ([5]; 100 mg Prozyme 6, 10 mmol ester in 100 ml 0.2M phosphate buffer pH 7.0, 25 C, 18 hours): 34.0%
% e.e. ([5]; 18 hours): 21.6%

COc1ccc2cc(C(C)C(=O)OCC[N+](C)(C)C)ccc2c1 (centres unmarked) [Compound 11, Methyl Sulfate Salt of 2-(N,N,N-Trimethylammonium)ethyl Ester of 2-(6-Methoxy-2-naphthyl)propanoic Acid]
% e.e. ([5]; 18 hours): 34.0%

CC(=O)SC[C@H](C)C(=O)OCS(=O)(=O)O [Compound 15, Potassium Salt of the Sulfomethyl Ester of L-(+)-S-3-Acetylthio-2-methylpropanoic Acid]
Rate Ratio L/D [6]: 2.1
Rate (hydrolysis) [6]: 135 umols/hr/mg
Rate Ratio L/D [7]: 1.7
Rate (hydrolysis) [7]: 105 umols/hr/mg
Rate Ratio L/D [8]: 2.3
Rate (hydrolysis) [8]: 12 umols/hr/mg
Rate Ratio L/D [9]: 1.1
Rate (hydrolysis) [9]: 65 umols/hr/mg
Rate Ratio L/D [10]: 1.1
Rate (hydrolysis) [10]: 29 umols/hr/mg

CC(=O)SC[C@@H](C)C(=O)OCS(=O)(=O)O [Compound 14, Potassium Salt of the Sulfomethyl Ester of D-(-)-S-3-Acetylthio-2-methylpropanoic Acid]
Rate (hydrolysis) [6]: 65 umols/hr/mg
Rate (hydrolysis) [7]: 63 umols/hr/mg
Rate (hydrolysis) [8]: 5.3 umols/hr/mg
Rate (hydrolysis) [9]: 61 umols/hr/mg
Rate (hydrolysis) [10]: 27 umols/hr/mg

COc1ccc2cc(C(C)C(=O)OCS(=O)(=O)O)ccc2c1 (centres unmarked) [Compound 9, Sodium Salt of Sulfomethyl Ester of 2-(6-Methoxy-2-naphthyl)propanoic Acid]
conversion (enzymatic hydrolysis) ([3]; 2.0 gm ester in 400 ml 50 mM sodium phosphate pH 7.5, 25 degrees, 16 hours): 18%
enantiomeric excess of R isomer of naproxen (acid product) ([3]; pH 7.5, 25 degrees, 16 hours): 61.2%
enantiomeric excess of S isomer of Naproxen (from unconverted ester hydrolysed at pH 12) ([3]; pH 7.5, 25 degrees, 16 hours): 45.5%
